Measurements as given in publication PMC12035805, “A Water-Soluble Aggregation-Induced Emission Photosensitizer with Intrinsic Antibacterial Activity as an Antiplanktonic and Antibiofilm Therapeutic Agent” (Journal of Medicinal Chemistry, 2025).

Columns and labels:
S. aureus [1] = assay: Time-kill kinetics against S. aureus; type: cell-based, Staphylococcus aureus; conditions: 2 × MIC (6.25 μM), dark
Description: Similar to the MIC assay, the overnight culture of S. aureus incubated under darkness was diluted in fresh MHB and grown to the mid log phase. The S. aureus was then diluted to 1 × 10^6 CFU/mL in cation-adjusted MHB. Three mL of diluted S. aureus was transferred into a 15 mL culture tube. 2 × MIC and 4 × MIC of TPA-1 was added into the bacterial culture and incubated under darkness for 24 h. 2 × MIC of vancomycin and PBS were taken as the positive and negative controls, respectively. At time 0, 0.5, 1, 2, 4, 6, 8, and 24 h, 20 μL of the bacteria culture was taken out. The bacteria were serially diluted, and the number of viable bacteria was recorded using the plate counting method. The experiment was performed in triplicate.

S. aureus [2] = assay: Resistance development assay on S. aureus; type: cell-based, Staphylococcus aureus
Description: The MICs for TPA-1 and norfloxacin against S. aureus were first determined by the above-mentioned method. The wells with 0.5 × MIC of compounds were transferred to 1 mL fresh MHB and incubated under darkness for 3–4 h at 37 °C. The bacteria were then used to conduct a MIC assay again. The experiments were repeated for 20 days. The fold changes in the MIC values of the compounds were recorded. The experiments were performed in duplicate.

[3] = system: S. aureus biofilm formation; assay: S. aureus biofilm inhibition assay in the dark (crystal violet); type: cell-based; conditions: Staphylococcus aureus, light or radiation study, without light irradiation
Description: For biofilm inhibition assay, overnight culture of S. aureus in TSB was diluted to 1 × 10^7 CFU/mL in TSB (with 1% glucose). Ten μL of the diluted bacteria were added to a 96-well plate containing 90 μL of serial diluted TPA-1 in TSB (with 1% glucose). After overnight incubation at 37 °C in darkness, the medium in the well was removed. The remaining biofilm was washed with 200 μL of PBS (3 times) and fixed with 100 μL of methanol for 10 min. The well was left for drying. Then, 150 μL of 0.1% crystal violet was added to the wells and stained for 10 min. The crystal violet was removed, and the wells were washed with 200 μL of PBS (3 times). After drying, the remaining crystal violet was dissolved in 100 μL of 95% ethanol with gentle shaking, and the absorbance at 570 nm was recorded. The biofilm inhibition % was calculated as [1 – (ODTPA-1 – ODblank)/(ODmedium – ODblank)] × 100% where ODTPA-1, ODmedium and ODblank were the absorbances of the wells with bacteria treated TPA-1, with bacteria without treatment and with medium only, respectively. The experiment was performed in triplicate.

S. aureus mature biofilm = S. aureus mature biofilm eradication assay in the dark; type: cell-based, Staphylococcus aureus; conditions: 24 h
Description: For biofilm eradication assay, overnight culture of S. aureus in TSB under darkness was diluted to 1 × 10^5 CFU/mL in TSB (with 1% glucose). 100 μL of the diluted culture was transferred to each well of a 96-well plate. The plate was kept at 37 °C for 24 h under darkness to form mature biofilms. The medium was removed, and the biofilms were washed with 200 μL of PBS (3 times). 100 μL of the premixed TPA-1 solutions in TSB (with 1% glucose) were added to the wells. The plate was further incubated for 24 h under darkness and subjected to the crystal violet assay as stated in the biofilm inhibition assay. The biofilm survival rate (%) was calculated as (ODTPA-1 – ODblank)/(ODmedium – ODblank) × 100% where ODTPA-1, ODmedium, and ODblank were the absorbances of the wells with bacteria treated TPA-1, with bacteria without treatment and with medium only, respectively. The experiment was performed in triplicate.

planktonic P. aeruginosa = assay: Photodynamic eradication of planktonic bacteria; type: cell-based, Pseudomonas aeruginosa; conditions: 2 μM, 600 nm (60 mW/cm^2)
Description: For planktonic bacteria, an overnight culture of S. aureus or P. aeruginosa was diluted 100 times in TSB and grown to OD = 1. The bacteria cultures were then diluted to […] in PBS. TPA-1 (2 μM) was added to the diluted cultures and incubated under darkness for 20 min at 30 °C. Bacterial cultures of 200 μL were transferred to the wells of a 96-well plate. The plate was irradiated by 600 nm light (60 mW/cm^2) for 30 and 45 min. Then, the bacterial cultures were serially diluted, and the number of viable bacteria was counted using the plate counting method.

S. aureus biofilm = assay: Photodynamic eradication of biofilm bacteria; type: cell-based, Staphylococcus aureus; conditions: light irradiation at 600 nm for 45 min
Description: (§1) For biofilm bacteria, overnight culture of S. aureus or P. aeruginosa was diluted to 1 × 10^5 CFU/mL in TSB (with 1% glucose). Portion of 100 μL of the diluted bacteria culture was added to the wells of a 96-well plate. The plate was incubated under darkness for 24 h at 37 °C. Then, the planktonic bacterial suspensions were removed from the wells. The biofilms were washed with PBS (3 times) to remove any remaining planktonic bacteria. Different concentrations of TPA-1 were dissolved in PBS. TPA-1 solution was added to the biofilms (120 μL for S.aureus, 150 μL for P.aeruginosa). After 20 min of incubation under darkness at 30 °C, the biofilms were kept in the dark or irradiated by 600 nm light (60 mW/cm^2) for 15, 30, and 45 min. After that, the TPA-1 solution was replaced by 120 μL of PBS. The biofilm was then suspended in PBS by scratching, followed by sonication (5 min, ≤42 kHz) and vortex (5 min, 950 rpm). The number of viable bacteria was determined by the plate counting method. All experiments were carried out in triplicate.

P. aeruginosa biofilm = assay: Photodynamic eradication of biofilm bacteria; type: cell-based, Pseudomonas aeruginosa; conditions: light irradiation at 600 nm for 45 min
Description: as §1

Question: C#CCC[n+]1c(/C=C/c2ccc(-c3ccc(N(c4ccc(OCCC[N+](C)(C)C)cc4)c4ccc(OCCC[N+](C)(C)C)cc4)cc3)s2)sc2ccccc21.[Br-].[Br-].[Br-] [TPA-1] was tested. Which “time to completely eradicate S. aureus” value (S. aureus [1]) did it give?
Answer: ≤ 2 h

Question: What about the “increase of MIC against S. aureus after treatment for 20 days” value (S. aureus [2]; 20 days of passages at 0.5 × MIC) of the same molecule?
Answer: 2 fold

Question: What about the MIC (S. aureus [2]; Staphylococcus aureus, read-out: initial MIC against S. aureus in resistance development assay) of the same molecule?
Answer: 3.12 µM

Question: And the inhibition at 3.125 µM ([3]; 1 × MIC (3.125 μM))?
Answer: > 90%

Question: And the inhibition at 6.25 µM ([3]; ≥ 6.25 μM)?
Answer: > 99.9%

Question: What about the “eradication of mature S. aureus biofilms without light” value (S. aureus mature biofilm) of the same molecule?
Answer: only limited ability to eradicate mature biofilms

Question: What about the “planktonic P. aeruginosa eradicated” value (planktonic P. aeruginosa; 30 min) of the same molecule?
Answer: 99.96% ± 0.03%

Question: What about the “planktonic P. aeruginosa log CFU/mL reduction” value (planktonic P. aeruginosa; 30 min) of the same molecule?
Answer: 3.4 ± 0.2 log CFU/mL

Question: And the “planktonic P. aeruginosa eradicated” value (planktonic P. aeruginosa; 45 min)?
Answer: > 99.99%

Question: What about the “planktonic P. aeruginosa log CFU/mL reduction” value (planktonic P. aeruginosa; 45 min) of the same molecule?
Answer: > 5 log CFU/mL

Question: And the “S. aureus biofilm log CFU/mL reduction” value (S. aureus biofilm)?
Answer: 1.18 ± 0.05 log CFU/mL

Question: And the “S. aureus in the biofilm eradicated” value (S. aureus biofilm)?
Answer: 92% ± 3%

Question: And the “P. aeruginosa biofilm log CFU/mL reduction” value (P. aeruginosa biofilm)?
Answer: 2.6 ± 0.2 log CFU/mL

Question: And the “P. aeruginosa in the biofilm eradicated” value (P. aeruginosa biofilm)?
Answer: 99.8% ± 0.1%
